Experimental data: patent US20130261132A1, “CALCIUM-SENSING RECEPTOR-ACTIVE COMPOUNDS” (LEO PHARMA A/S, priority 2010, published 2013)

Experiments:
[1] = Clearance in human liver microsomes; format: in vitro ADME; details: hepatic extraction ratio; test compound 0.5 μM, microsomes 0.5 mg/mL, NADPH 1 mM, 37° C.
Description: Test compound concentration is 0.5 μM, microsome concentration is 0.5 mg/mL and NADPH concentration is 1 mM in the incubation. The described method is performed by the liquid handling system Tecan RSP and is based on a 96-well format.
Control incubations with test compound without NADPH and test compound without microsomes are conducted to investigate non-CYP mediated metabolism and stability in phosphate buffer at 37° C., respectively.
The human liver microsomal suspension in phosphate buffer is mixed with NADPH. The mixture is pre-heated (7 min) to 37° C. Test compound is added, and the mixture is incubated for 30 minutes. Incubations are run in duplicate. Samples are withdrawn at predetermined stop times and mixed with methanol containing internal standard (IS) to terminate all enzyme activity and precipitate proteins. A control without NADPH (to detect problems such as nonspecific protein binding, heat instability or non-CYP mediated metabolism) and a control without microsomes (for assessing compound stability in the absence of any active enzymes) are tested.
The percentage of organic solvent in the incubations is less than 1%. Careful inspections of reagents are performed prior to the start of any experiment to ensure all reagents are in solution.
The 96-well plates are centrifuged. Test compound depletion, using a compound specific LC/MS/MS method, is determined.
The logarithm of the peak area ratios of test compound to internal standard (IS) versus incubation time is plotted in a graph.
The rate constant (k) (min^−1) of test compound depletion is calculated from the linear part of the curve and the half-time (t1/2) in minutes can be calculated from the rate constant (Eq. 2).
Intrinsic clearance (CIint) (mL/min/mg protein) is calculated from: […]
where c is the microsomal protein concentration in mg/mL.
Conversion to apparent clearance (CIapp) (mL/min/kg) is done by Eq. 4:
CIapp=CIint×a×b/d (Eq. 4)
where a, b and d are the scaling factors for normalizing CIint to human body weight.
a: 45 (microsomal protein/liver weight (mg/g))
b: 1500 (liver weight (g))
Hepatic clearance (CIh) (mL/min/kg) based on the well-stirred model is described as followed:
CIh=(CIapp·Q)/(CIapp+Q) (Eq. 5)
where Q is the liver blood flow in mL/min/kg (20 in humans).
Dividing hepatic clearance with liver blood flow, the hepatic extraction ratio (%) can be calculated:
Apparent clearance below approximately 10 mL/min/kg human body weight (corresponding to extraction ratio of approx. 33%) is considered as low clearance (high metabolic stability). Apparent intrinsic clearance above approximately 60 mL/min/kg human body weight (corresponding to extraction ratio of approx. 75%) is considered as high clearance (low metabolic stability).

human CaSR = molecular target: T1, human CaSR (Homo sapiens, UniProt P41180); assay: Functional whole cell assay (modulation of human CaSR), IP1 accumulation in CHO-K1 cells; format: cell-based; details: CHO-K1 cells stably expressing human CaSR, final Ca2+ 1.9 mM, IP1 readout; concentration producing 50% of maximum agonistic response
T1 sequence (P41180 20-1078): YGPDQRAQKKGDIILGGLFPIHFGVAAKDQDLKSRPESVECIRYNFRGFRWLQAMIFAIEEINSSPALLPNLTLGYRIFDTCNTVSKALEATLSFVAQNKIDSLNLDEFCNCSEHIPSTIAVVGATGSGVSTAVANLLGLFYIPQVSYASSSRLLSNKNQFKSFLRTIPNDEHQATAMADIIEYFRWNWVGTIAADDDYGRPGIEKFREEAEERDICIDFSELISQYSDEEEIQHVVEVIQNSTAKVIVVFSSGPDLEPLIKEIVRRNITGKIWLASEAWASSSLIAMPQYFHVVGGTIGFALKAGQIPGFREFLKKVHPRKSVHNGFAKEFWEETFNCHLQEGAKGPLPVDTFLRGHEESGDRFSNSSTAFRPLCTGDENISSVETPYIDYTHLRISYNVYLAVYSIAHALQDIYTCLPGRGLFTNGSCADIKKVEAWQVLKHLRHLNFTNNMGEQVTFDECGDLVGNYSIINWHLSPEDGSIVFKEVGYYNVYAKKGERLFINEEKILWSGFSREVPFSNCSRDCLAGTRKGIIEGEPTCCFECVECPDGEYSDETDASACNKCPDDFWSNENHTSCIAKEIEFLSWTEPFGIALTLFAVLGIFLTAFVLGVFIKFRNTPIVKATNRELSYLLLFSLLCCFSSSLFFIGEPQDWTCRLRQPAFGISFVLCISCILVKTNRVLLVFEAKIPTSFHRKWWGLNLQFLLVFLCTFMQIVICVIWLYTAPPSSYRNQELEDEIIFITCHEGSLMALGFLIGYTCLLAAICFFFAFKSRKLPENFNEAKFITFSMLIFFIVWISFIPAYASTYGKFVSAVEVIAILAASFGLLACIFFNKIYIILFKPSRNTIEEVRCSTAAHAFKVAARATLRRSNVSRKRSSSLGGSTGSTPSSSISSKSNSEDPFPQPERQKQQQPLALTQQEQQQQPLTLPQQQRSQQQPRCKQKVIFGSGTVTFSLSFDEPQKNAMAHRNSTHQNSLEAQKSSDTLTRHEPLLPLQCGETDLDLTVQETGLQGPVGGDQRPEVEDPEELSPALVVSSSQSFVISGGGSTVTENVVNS
Text: The assay investigates a compound's functional ability to act as a biological positive modulator on the human CaSR. Activation of the receptor expressed on CHO-K1 cells is detected through the G alpha q pathway, the activation of phospholipase C and the accumulation of intracellular inositol phosphate (IP) as described earlier [Sandrine Ferry, Bruno Chatel, Robert H. Dodd, Christine Lair, Danielle Gully, Jean-Pierre Maffrand, and Martial Ruat. Effects of Divalent Cations and of a Calcimimetic on Adrenocorticotropic Hormone Release in Pituitary Tumor Cells. Biochemical and biophysical research Communications 238, 866-873 (1997)]. The human CaSR is stably expressed on a CHO-K1 cell clone, stimulated with a basal level of calcium and challenged with the tested compound. The level of IP1 is determined using the IP-One Terbium htrf kit (Cisbio, France). CHO-K1 cells not transfected with the CaSR fail to elicit an IP1 response upon calcium and/or compound stimulation.
The ORF coding for the human CaSR (genebank: NM_000388) was acquired from Invitrogen Corp, USA and subsequently cloned into the mammalian expression vector pCDA3.1.
CHO-K1 cells were transfected using Lipofectamine according to manufacturer's protocol (400.000 cells/well were seeded in a 6-well plate and transfected after 24 hours using 2 μg DNA and 5 μl lipofectamine). After another 24 hours the cells were detached, seeded and subjected to 1 mg/ml of G-418. Following 7 days growth single clones were picked, the CaSR expression evaluated using the 5C10 antibody against CaSR, the clones with the highest expression were selected and tested for functional response. The preferred clone was cultured according to standard procedures described in ATCC (American Type Culture Collection) protocols for CHO-K1 with the addition of 500 μg/ml G-418.
On the assay day, cells were thawed, harvested and resuspended to 4*10^6 cells/ml in stimulation buffer (containing: Hepes 10 mM, MgCl2 0.5 mM, KCl 4.2 mM, NaCl 146 mM, glucose 5.5 mM, LiCl 50 mM, BSA 0.5% at pH 7.4). Ten μl cell solution was pipetted into wells of a white 384-well plate (Perkin Elmer Optiplate) containing 2 μl compound diluted in assay buffer (containing: Hepes 10 mM, MgCl2 0.5 mM, KCl 4.2 mM, NaCl 146 mM, glucose 5.5 mM, LiCl 50 mM, CaCl2 11.4 mM at pH 7.4), resulting in a final Ca^2+ concentration of 1.9 mM. After compound stimulation for 1 hour at 37° C. and 15 min at room temperature, 10 ul of IP-One assay detection reagent (prepared as described by the IP-One assay kit manufacturer) was added and the plate was incubated for another 1 hour at room temperature. Finally the plate was read using a Perkin Elmer EnVision, according to the protocol supplied by the IP-One assay kit manufacturer. The FRET ratio was calculated by dividing the 665 nm emission signal with that of the 615 nm.
The molar concentration of a compound that produces 50% of the maximum agonistic response (the […] value) is calculated according to the equation “General sigmoidal curve with Hill slope, a to d” (Equation 1). This model describes a sigmoidal curve with an adjustable baseline. The equation can be used to fit curves where response is either increasing or decreasing with respect to the independent variable, X. […]
y=(a−d)/(1+(x/c)̂b)+d Equation 1 x=concentration of tested compound […]
a=min response as compound concentration approaches 0 d=max response as concentration of tested compound is increasing […]
b=Hill coefficient or curve slope

- Clearance (% Eh) in human liver microsomes [1]: A (A: Eh < 33%)
- EC50 (human CaSR): 200 to 1000 nM
Structure (SMILES): C[C@@H](N[C@H]1CC[C@@H](c2ccc(OCC(=O)NC3CCNCC3)cc2)C1)c1cccc(Cl)c1 [Compound 102, 2-[4-[(1R,3S)-3-[[(1R)-1-(3-Chlorophenyl)ethyl]amino]-cyclopentyl]-phenoxy]-N-(4-piperidyl)-acetamide]
